Consider three compounds from patent US20150133493A1, “COUMARIN-BASED COMPOUNDS FOR THE TREATMENT OF ALZHEIMER'S DISEASE AND CANCER” (Sloan-Kettering Institute for Cancer Research, priority 2008, published 2015).

Molecules are shown by their SMILES. “Also recorded” adds a separate entry of the source.

The target in test [1] is T1, γ-secretase (Homo sapiens, UniProt P49768).
T1 construct: endogenous in cells
Briefly: In vitro γ-secretase activity assay, Aβ42 production (ECL). The class given is biochemical. The following applies: in vitro inhibition of γ-secretase activity that generates Aβ42; 2.5 hr at 37° C., ECL detection. Here is the method: FIG. 2. In vitro characterization of coumarin-dimer allosteric GSIs against various γ-secretase cleavage products. […] The IC50 values were calculated from the dose response curves using a non-linear regression analysis in Prism software. […] The three β-amyloid-detection in vitro assays were modified from our previously reported assay (21) using a biotinylated substrate that eliminated the requirement of anti-β-amyloid biotinylated antibody. Ruthenylated antibodies that detected the -40, -42, or -38 cleavage site were incorporated to detect proteolysis indicative of γ-secretase activity. In vitro Notch assay utilized a recombinant transmembrane portion of the Notch peptide and anti-Notch1 SM320 antibody in conjunction with ruthenylated anti-rabbit secondary antibodies. Electrochemiluminescence was quantified on an Analyzer (BioVeris).
Briefly, recombinant peptide substrate was incubated with γ-secretase (40 μg/ml) in the presence or absence of test compound. […] The reaction was incubated for 2.5 hr at 37° C. and stopped by adding RIPA buffer (150 mM NaCl, 1.0% NP-40, 0.5% sodium deoxycholate, 0.1% SDS, 50 mM Tris HCl, pH 8.0). […] The amount of product was determined using synthetic peptide or recombinant standards.
(§1) Cell membranes and solubilized γ-secretase were prepared as described previously (36). The in vitro and cell γ-secretase assays detecting either Aβ38, Aβ40, or Aβ42 cleavage were performed similar as previously described (21, 36). Cleaved product was detected using ruthenylated antibodies that recognize specific APP cleavage sites (Aβ31-38*, G2-10*, or G2-11* antibody for Aβ38, Aβ40, or Aβ42 respectively). The Km and Vmax in the presence and absence of γ-secretase inhibitors were analyzed by non-linear curve fit using the software SigmaPlot 8.0 with the Michaelis-Menten equation (v=Vm [S]/(Km+[S]; v: initial rate; Vm: maximum velocity; Km: the Michaelis-Menten constant, S: substrate).

The subject of test [2] is cells stably transfected with APP. Briefly: Cell-based assay for production of Aβ38, Aβ40 and Aβ42 peptides (Example 29, FIG. 1). The following applies: increasing concentrations of compound. Here is the method:
The following cell-based assay can be used for assessing inhibitory activity of test compounds on γ-secretase activity on APP expressed in stably transfected cells. Cells such as HEK239 or N2A cells that stably express APP are incubated 24-48 hr. in medium to which is added γ-secretase with or without test compound. The conditioned medium is collected. Secreted Aβ peptides are detected by electrochemiluminescence (ECL) technology as previously described, for example, in Li et al., 2000, Proc. Nat'l Acad. Sci. USA 97:6183-643; Lai et al., 2003, J. Biol. Chem. 278: 22475-22481; and Yin et al., 2007, J. Biol. Chem. 282:23639-23644. Concentration of Aβ peptides can be calculated from standard curves that are generated using synthetic peptides using the ECL assay.
Results of a cell-based assay are provided in FIG. 1 in which cells stably transfected with APP were incubated in medium containing γ-secretase activity and the indicated amounts of compound 37.

The target of test [3] is T1, γ-secretase. Briefly: In vitro γ-secretase activity assay, Aβ40 production (ECL). In kind it is biochemical. Here is the method:
FIG. 2. In vitro characterization of coumarin-dimer allosteric GSIs against various γ-secretase cleavage products. The potency of 7 unique coumarin-based γ-secretase inhibitors were evaluated for efficacy against γ-secretase-mediated production of Aβ40, Aβ42, Aβ38, and Notch. Additionally, the pan-GSI Compound E was also examined in these assays. The IC50 values were calculated from the dose response curves using a non-linear regression analysis in Prism software. IC50 values are presented with standard deviation (n=3 for each data point). The three β-amyloid-detection in vitro assays were modified from our previously reported assay (21) using a biotinylated substrate that eliminated the requirement of anti-β-amyloid biotinylated antibody. Ruthenylated antibodies that detected the -40, -42, or -38 cleavage site were incorporated to detect proteolysis indicative of γ-secretase activity. In vitro Notch assay utilized a recombinant transmembrane portion of the Notch peptide and anti-Notch1 SM320 antibody in conjunction with ruthenylated anti-rabbit secondary antibodies. Electrochemiluminescence was quantified on an Analyzer (BioVeris). The selectivity ratio for Aβ42 inhibition over Aβ40 and Notch are indicated in the two far right columns.
The assay protocol employed was a modified version of that described in Li et al., 2000, Proc. Nat'l Acad. Sci. USA 97:6183-643, incorporated herein by reference. Briefly, recombinant peptide substrate was incubated with γ-secretase (40 μg/ml) in the presence or absence of test compound. The reaction mixture contained 0.25% CHAPSO, 0.1 μg/μl BSA, protease inhibitor, 50 mM PIPES, pH 7.0, 5 mM MgCl2, 5 mM CaCl2 and 150 mM KCl. The reaction was incubated for 2.5 hr at 37° C. and stopped by adding RIPA buffer (150 mM NaCl, 1.0% NP-40, 0.5% sodium deoxycholate, 0.1% SDS, 50 mM Tris HCl, pH 8.0). The products were detected with various antibody combinations using electrochemiluminescence (ECL) technology as previously described in Li et al., 2000, Proc. Nat'l Acad. Sci. USA 97:6183-643; Lai et al., 2003, J. Biol. Chem. 278: 22475-22481; and Yin et al., 2007, J. Biol. Chem. 282:23639-23644. The amount of product was determined using synthetic peptide or recombinant standards.
as §1

Test [4] deals with T1, γ-secretase. The conditions noted are these: reference (22); cited from earlier work.
Test [5] deals with T2, γ-secretase active site (Homo sapiens, UniProt P49768).
T2 construct: endogenous in cells; host or cells: HeLa membrane
Briefly: Photolabeling of the γ-secretase active site (PS1-NTF) in HeLa membrane with probes L646, GY4, JC8, L505. In kind it is binding. The conditions noted are these: L458 and Compound E at 2 μM, CS-1 up to 100 μM. Here is the method: FIG. 4. Kinetic analysis of allosteric GSIs and evaluation of their effect on the γ-secretase active site architecture. (a) Kinetic analysis of CS1 was performed using our modified version of a previously reported in vitro γ-secretase activity assay. The inhibition kinetics were analyzed by using a non-linear curve fit with the Michaelis-Menten equation. Upper right inset: we replotted slopes against the inhibitor concentrations after performing double reciprocal conversion. (b) Schematic representation of the allosteric binding of the di-coumarin compounds to γ-secretase. This binding ultimately causes an alteration at the active site of γ-secretase. Black rectangle represents the coumarin-dimer compound. (c) The binding of L458 to the active site of γ-secretase and its interaction at various subpockets within the enzyme. (d) Chemical structure of the four photoaffinity probes utilized in the characterization of CS-1 effect on active site architecture. Hydroxyethylamine and benzophenone moieties are marked by blue and red, respectively. (e) Evaluation of CS-1 effect on the photolabeling of four probes. […] (f) Evaluation of CS-2 effect on the active site photolabeling by L505 and GY4. (g) Effect of Compound E on active site photolabling. […] Blotting was performed for PS1-NTF. The photolabeling blots are representative and were performed in triplicate.
We hypothesized that the allosteric binding of the di-coumarin compounds alters the conformation of the active site of γ-secretase and thereby preferentially affects the Aβ42 site cleavage (FIG. 4b). This raised the technical issue of how to probe the contours of the enzymatic active site. Although the structure of γ-secretase has been determined by cryoelectron microscopy (23), the resolution attained is not sufficient to investigate subtle changes within the active site. Consequently, we developed a series of active-site directed inhibitors that incorporate a photoreactive benzophenone entity into varied positions. Using these photoreactive probes, we assessed the effect of the di-coumarin inhibitor binding on the active site of γ-secretase. Since the efficiency of photoinsertion depends on the orientation of the probe and the proximity of residues within the active site, conformational change of the active site can alter the orientation of the probe and contact residues and lead to altered cross-linking efficiencies. Therefore, multiple photoactivatable, active-site directed GSIs will provide a practical approach to evaluate the changes within the active site following allosteric di-coumarin binding.
L458 contains a hydroxyethylamine transition-state isostere that mimics the tetrahedral intermediate of aspartyl proteases and this moiety hydrogen bonds with the catalytic aspartate residues of γ-secretase (20). According to the nomenclature of Schechter and Berger (24), L458 contains the P2, P1, P1′, P2′ and P3′ residues that putatively bind to the S2, S1, S1′, S2′ and S3′ subsites, respectively, within the active site of γ-secretase (FIG. 4c). We have developed a series of biotinylated, photoactivatable inhibitors based on the core structure of L458 that allow us to probe the sub-pockets of the γ-secretase active site (3, 25-26). These inhibitors all have an individual benzophenone group incorporated into L458 at either the P2, P1, P1′, or P3′ position and are referred to as L646, GY4, JC8 and L505 (FIG. 4d). Each of these inhibitors interacts and labels the S2, S1, S1′, and S3′ subsites, respectively, within the γ-secretase complex (FIG. 4c-d).
HeLa membrane was incubated with CHAPSO detergent and photoaffinity probe in the presence or absence of excess L458 or CS-1. Labeled presenilin was isolated using streptavidin beads, separated by SDS-PAGE and subsequently western blotted using anti-PS1-NTF antibodies. Again, presenilin is believed to contain the active site of γ-secretase, therefore we examined PS1 photolabeling. […]

For test [6], the target named is T1, γ-secretase. The test can be described thus: Inhibition kinetic analysis in the in vitro γ-secretase activity assay. The class given is biochemical. The following applies: APP-transmembrane domain substrate. Here is the method:
FIG. 4. Kinetic analysis of allosteric GSIs and evaluation of their effect on the γ-secretase active site architecture. (a) Kinetic analysis of CS1 was performed using our modified version of a previously reported in vitro γ-secretase activity assay. The inhibition kinetics were analyzed by using a non-linear curve fit with the Michaelis-Menten equation. Upper right inset: we replotted slopes against the inhibitor concentrations after performing double reciprocal conversion. (b) Schematic representation of the allosteric binding of the di-coumarin compounds to γ-secretase. This binding ultimately causes an alteration at the active site of γ-secretase. Black rectangle represents the coumarin-dimer compound. (c) The binding of L458 to the active site of γ-secretase and its interaction at various subpockets within the enzyme. […]
Cell membranes and solubilized γ-secretase were prepared as described previously (36). […] Cleaved product was detected using ruthenylated antibodies that recognize specific APP cleavage sites (Aβ31-38*, G2-10*, or G2-11* antibody for Aβ38, Aβ40, or Aβ42 respectively). The Km and Vmax in the presence and absence of γ-secretase inhibitors were analyzed by non-linear curve fit using the software SigmaPlot 8.0 with the Michaelis-Menten equation (v=Vm [S]/(Km+[S]; v: initial rate; Vm: maximum velocity; Km: the Michaelis-Menten constant, S: substrate).

In test [7] the test system is N2a mouse neuroblastoma cells that stably express Swedish-mutated APP. Briefly: Cell-based assay of secreted Aβ42, Aβ40, Aβ38 in APPsw-N2A cells. The conditions noted are these: 24 hrs, in words, CS-1 up to 30 μM. Here is the method:
FIG. 3. Cellular evaluation of the coumarin-dimer CS-1 and its selective inhibition of Aβ42. Compounds were incubated with the APPsw-N2A mouse neuroblastoma cells for 24 hours and media were analyzed by biotinylated 4G8 and ruthenylated antibodies specific for each respective cleavage product. […] (d) Immunoprecipitation mass spectrometry analysis of CS-1 effect on secreted β-amyloid species. Aβ peptides were immunoprecipitated using 4G8 antibody and isolated with Protein G+/A agarose beads. Samples were analyzed by MALDI-MS. Samples shown are representative and each data point was performed in triplicate. (e) Cell-based Notch cleavage assay. HEK-293 cells were transfected with ΔE Notch construct and then Compound E and CS-1 were evaluated for their ability to inhibit γ-secretase-mediated Notch intracellular domain production. […] Western blot is representative and was performed in triplicate. (f) Effect of CS-1 on AICD production. N2A APPsw cell membrane was prepared and incubated with the indicated concentrations of CS-1 at 37° C. for 2 hours. The generated AICD and APP-CTFs were detected by Western Blotting using APPc antibody. Western blot is representative and was performed in triplicate.
We next set out to determine if the selective inhibition of Aβ42 was maintained in a cell-based system for APP processing. First, we compared our lead compound CS-1 (FIG. 3a) to Compound E (FIG. 3b) and the GSM compound indomethacin (FIG. 3c). N2a mouse neuroblastoma cells that stably express Swedish-mutated APP substrate were treated with the indicated compounds for 24 hrs at 37° C. Following 24 hr incubation period, the medium was collected from the cells and assayed for secreted Aβ42, Aβ40, and Aβ38. […] The result for indomethacin mirrored those findings by Kukar et al. whereby a different cell-based system was utilized (17), further validating our assay system for analysis of these Aβ species. […] This may reflect subtle variations between the cellular and in vitro conformations of γ-secretase. Nevertheless, the cell-based studies confirmed that CS-1 maintains a preference for inhibition of the γ-secretase mediated production of Aβ42 over Aβ40 or Aβ38, which is distinct to previously reported GSMs (17) and inhibitors (14-15, 18).
as §1

`O=c1oc2ccccc2c(O)c1C(c1cc(F)c(F)c(F)c1)c1c(O)c2ccccc2oc1=O` [Compound 37]: the 50% inhibitory concentration (IC50) (in general, the concentration at which inhibition is half-maximal) in test [1] was 0.2 µM. In test [2], the “amount of Aβ38 secreted from the cells” value is reported as “remain relatively constant”, the “amount of Aβ40 secreted from the cells” value is reported as “remain relatively constant” and the “amount of Aβ42 secreted from the cells” value is on record as “decrease”. The IC50 in test [3] (in vitro inhibition of γ-secretase activity that generates Aβ40, 2.5 hr at 37° C., ECL detection) is 0.6 µM. In test [3] (ratio of IC50 for Aβ40 to IC50 for Aβ42), the Aβ40/Aβ42 ratio is recorded as 3.0.
For `CC(C)C[C@H](NC(=O)[C@H](Cc1ccccc1)C[C@@H](O)[C@H](Cc1ccccc1)NC(=O)OC(C)(C)C)C(=O)N[C@@H](Cc1ccccc1)C(N)=O` [L-685,458], the “mode of inhibition when the C100 substrate is used” value in test [4] is reported as “non-competitive inhibitor”. Further, in test [5], the “effect on JC-8 photolabeling of PS1-NTF (S1′ subsite)” value is recorded as “completely blocked” and the “effect on L646 photolabeling of PS1-NTF (S2 subsite)” value is reported as “completely blocked”. In test [5] (CS-2 at 100 μM), the “effect on GY-4 photolabeling of PS1-NTF (S1 subsite)” value is recorded as “completely blocked” and the “effect on L505 photolabeling of PS1-NTF (S3′ subsite)” value is “completely blocked”. Further, the “mode of inhibition against APP-TM substrate” value in test [6] was “competitive inhibitor”.
On to `COc1ccc2c(c1)c(CC(=O)O)c(C)n2C(=O)c1ccc(Cl)cc1` [indomethacin], for which, in test [7], the “effect on secreted Aβ38 production” value is “potently increases; also recorded: significantly enhanced”, the “effect on secreted Aβ40 production” value is “little effect; also recorded: no effect” and the “effect on secreted Aβ42 production” value is given as “reduces; also recorded: abrogated”.
